These results are taken from PMC9499525, “Tissue-restricted inhibition of mTOR using chemical genetics” (Proceedings of the National Academy of Sciences of the …, 2022).

As a reminder, the Papp is a coefficient for how fast a substance crosses the barrier. Read a high Papp as fast passage. The Papp A→B is how fast a substance crosses the layer from the apical side. As a reminder, the Papp B→A is how fast a substance crosses the layer from the basolateral side.

Series [1] has as its target T1, FKBP12 V55G-HA / GST-mTOR FRB domain ternary complex (Homo sapiens, UniProt P42345+P62942, V56G).
T1 construct: recombinant HA-tagged wild-type or V55G mutant FKBP12 with GST-tagged mTOR FRB domain; 8xHis (cleaved yes); made in house; host or cells: E. coli BL21 (DE3) for FKBP12
Put plainly: TR-FRET ternary complex formation, FKBP12 V55G with mTOR FRB. Format: binding. The protocol:
(§1) TR-FRET assay was performed using recommended conditions from Cisbio with slight modifications. FKBP12-HA, FKBP12 V55G-HA, and GST-mTORFRB recombinant proteins were each diluted to 5 nM in assay buffer (20 mM HEPES pH 7.5, 150 mM NaCl, 0.05% Tween-20, 0.1% bovine serum albumin [BSA], 0.5 mM dithiothreitol [DTT]). Anti-GST-Tb (Cisbio) and Anti-HA-XL665 (Cisbio) were diluted to 0.625 µg/mL and 5 µg/mL, respectively, in assay buffer. Rapa* compounds and FK506 were diluted to 50 µM and rapamycin to 5 µM in assay buffer containing 5% DMSO, and threefold serial dilution series were made from these solutions. We mixed 4 µL diluted FKBP12-HA protein, 4 µL diluted GST-mTORFRB, and 4 µL of compound or DMSO control in a well of a black low-volume 384-well plate (Corning 4514), and the mixture was incubated at room temperature for 1 h. We then added 4 µL of Anti-GST-Tb, and 4 µL Anti-HA-XL665, and the mixture was incubated at room temperature for an additional 1 h. Time-resolved fluorescence was read on a Tecan Spark 20M plate reader with the following parameters: Lag time: 60 µs; Integration time: 500 µs; Read A: Excitation filter 320 ([25]) nm, Emission filter 610 ([25]) nm, Gain 130; Read B: Excitation filter 320 ([25]) nm, Emission filter 665 ([8]) nm, Gain 165. Three replicates were performed for each assay condition. […]
Human FKBP12 coding sequence was cloned a pET-47b bacterial expression vector using Gibson assembly and a C-terminal HA-tag was added by QuickChange PCR. FKBP12 proteins were expressed as 8xHis fusions in E. coli BL21 (DE3) cells. […] Samples were then purified by size exclusion chromatography, concentrated to 10-20 mg/mL, and snap frozen in liquid nitrogen. pGEX-2T FRB was a gift from Jie Chen (Addgene plasmid #26607). mTOR FRB was expressed as a GST-fusion and purified as previously described (1). […]
PAMPA was performed by Quintara Discovery as described previously (2). Compounds were analyzed at 100 µM in PBS and measured using liquid chromatography-mass spectrometry (LC-MS) after 5 hours. […] Compounds were analyzed at 10 µM and measured by LC-MS after 1 hour.
Background: Time-resolved FRET reads energy transfer from a long-lived donor to a nearby acceptor.

Series [2] addresses T2, FKBP12-HA (wild-type) / GST-mTOR FRB domain ternary complex (Homo sapiens, UniProt P42345+P62942).
T2 construct: recombinant HA-tagged wild-type or V55G mutant FKBP12 with GST-tagged mTOR FRB domain; 8xHis (cleaved yes); made in house; host or cells: E. coli BL21 (DE3) for FKBP12
As to the kind of experiment: TR-FRET ternary complex formation, wild-type FKBP12 with mTOR FRB. Format: binding. The protocol: as §1, with “We mixed 4 µL diluted FKBP12-HA protein, 4 µL diluted GST-mTORFRB, and 4 µL of compound or DMSO control in a well of a black low-volume 384-well plate (Corning 4514), and the mixture was incubated at room temperature for 1 h. We then added 4 µL of Anti-GST-Tb, and 4 µL Anti-HA-XL665, and the mixture was incubated at room temperature for an additional 1 h.” left out, “165.” for “165. Three replicates were performed for each assay condition.”
Human FKBP12 coding sequence was cloned a pET-47b bacterial expression vector using Gibson assembly and a C-terminal HA-tag was added by QuickChange PCR. FKBP12 proteins were expressed as 8xHis fusions in E. coli BL21 (DE3) cells. […]
PAMPA was performed by Quintara Discovery as described previously (2). Compounds were analyzed at 100 µM in PBS and measured using liquid chromatography-mass spectrometry (LC-MS) after 5 hours. […]

Series [3] in a line: PAMPA membrane permeability. Format: in vitro ADME. The note with it: 100 µM in PBS, LC-MS. The protocol: PAMPA and Caco-2 membrane permeability assays
PAMPA was performed by Quintara Discovery as described previously (2). Compounds were
analyzed at 100 µM in PBS and measured using liquid chromatography-mass spectrometry (LC-
(PAMPA measures passive passage across an artificial lipid membrane.)

Series [4] is described as follows: Bidirectional Caco-2 cell permeability. The note with it: human, LC-MS. Format: in vitro ADME. The protocol: PAMPA and Caco-2 membrane permeability assays […]
MS) after 5 hours. Bidirectional Caco-2 cell permeability assay was performed by Quintara
Discovery. Compounds were analyzed at 10 µM and measured by LC-MS after 1 hour.
Background: Caco-2 monolayers are a common model of the intestinal barrier.

Series [5] relates to S. cerevisiae BY4741 fpr1-KO expressing human FKBP12 variants. Put plainly: Yeast disk diffusion growth inhibition assay. The format is cell-based, Saccharomyces cerevisiae. The note with it: 100 µM on disk, 3 d. From the text: BY4741 fpr1::URA3 yeast were generated by homologous recombination, selected on Ura- synthetic complete medium and subsequently grown in yeast extract-peptone-dextrose (YPD) medium ([46]). Human FKBP12 coding sequence was cloned via Gibson assembly into a pCH043 yeast expression vector, which had been previously modified with an HIS3 selection open reading frame (ORF). The C-terminal HA-tag and F46/V55 mutations were introduced by site-directed mutagenesis PCR. Plasmids were transformed into the BY4741 fpr1::URA3 strain and selected on His- synthetic complete medium. Isolated strains were verified by plasmid sequencing. To prepare yeast protein lysates, 2 optical density (OD) equivalents from an overnight culture was resuspended in 200 µl 0.1 M NaOH and incubated at room temperature for 15 min. Cells were pelleted, resuspended in 50 µL 2x SDS loading dye, and heated at 95 °C for 5 min. Following centrifugation at 20,000 × g for 10 min, supernatant was saved for analysis.
Yeast strains containing FKBP12-expression vectors were shaken overnight at 30 °C in 3 mL His- synthetic complete media. 0.1 OD of culture was spun down, resuspended in 1 mL sterile water, and 100 µL was spread on His-synthetic media containing galactose/raffinose to induce protein expression. Plates were incubated at 30 °C for 1 h to dry. Filter paper circles were prepared with a hole punch, placed on the plate, and 5 µL of DMSO, 100 µM rapamycin, or 100 µM Rapa* compound was pipetted onto the filter paper. Plates were incubated at 30 °C for 3 d before zones of growth inhibition were measured.

In series [6] the test system is Flp-In 293 cells with and without FKBP12 V55G-HA. Put plainly: Cell growth by CellTiter-Glo in Flp-In 293 cells. Format: cell-based, human. The note with it: 72 h treatment.
Protocol: All cell lines were maintained in DMEM (Gibco) supplemented with 10% heat-inactivated FBS (Axenia Biologix) at 37 °C in 5% CO2. Flp-In T-REx 293 cells were obtained from Thermo Fisher supplemented with 15 µg/mL blasticin and 100 µg/mL Zeocin. […] When indicated, cells were treated with drugs at 60–80% confluency at a final DMSO concentration of 0.1%.
Cells were seeded into 96-well tissue-culture treated plates (Greiner) and were allowed to incubate for 24 h. Cells were treated with indicated compounds and incubated for 72 h (100 µL final well volume, 0.1% DMSO). Cell viability was assessed by CellTiter-Glo (Promega). Assay reagent was diluted 1:4 in PBS containing 1% Triton X-100, and 100 µL was added to each well and mixed on a plate shaker for 20 min. Luminescence was measured on a Tecan Spark 20M.
Series [7] concerns Drosophila larvae (w1118 control and FKBP12 V55G transgenic). As to the kind of experiment: Drosophila larval development (pupae 9 d after egg laying). Format: in vivo. The protocol:
All Drosophila stocks and crosses were maintained on standard cornmeal-molasses food at 25 °C using a 12-h light/dark cycle. To generate UAS-FKBP12 V55G-HA transgenic lines, human FKBP12 V55G-HA ORF was cloned into a pUAST-attB vector between EcoR-I and Xho-I restriction sites. This construct was then integrated into an attB site using phiC31 integrase with the assistance of Rainbow Transgenic Flies, Inc. The driver stocks da-GAL4 (ubiquitous), elav-GAL4 and nSyb-GAL4 (neuronal-specific), Mef2-GAL4 and mhc-GAL4 (musculature), and 2–286-GAL4 and phm-GAL4 (ring-gland-specific) were obtained from Bloomington Drosophila Stock Center. The crossing schemes used in this study are depicted in SI Appendix, Fig. S11. For rapamycin or Rapa*3Z related experiments, fly food was prepared freshly 24 h before each experiment.
Fly food containing ethanol vehicle was used as control. […] Three biological replicates were used for each experiment. Data were analyzed using Prism 9.0 (GraphPad).

T1 sequence (P62942 whole entry V56G, the tested form may be a part): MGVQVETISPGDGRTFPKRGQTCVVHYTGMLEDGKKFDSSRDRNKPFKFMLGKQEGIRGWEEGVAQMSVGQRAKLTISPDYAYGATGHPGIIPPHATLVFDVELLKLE
T1 sequence (P42345 2012-2144 limits assumed): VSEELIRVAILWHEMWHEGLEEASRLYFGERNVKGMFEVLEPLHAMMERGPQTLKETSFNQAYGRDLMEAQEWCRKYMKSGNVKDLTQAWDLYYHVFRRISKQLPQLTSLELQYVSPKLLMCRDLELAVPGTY
T2 sequence (P62942 whole entry, the tested form may be a part): as the sequence (P62942 whole entry V56G, the tested form may be a part) above, with G56V counted along it
T2 sequence (P42345 2012-2144 limits assumed): as the sequence (P42345 2012-2144 limits assumed) above

As for `C=CC[C@@H]1/C=C(\C)C[C@H](C)C[C@H](OC)[C@H]2O[C@@](O)(C(=O)C(=O)N3CCCC[C@H]3C(=O)O[C@H](/C(C)=C/[C@@H]3CC[C@@H](O)[C@H](OC)C3)[C@H](C)[C@@H](O)CC1=O)[C@H](C)C[C@@H]2OC` [FK506, reference compound], the “Ternary complex induction (in words), FKBP12 V55G” value in series [1] is listed as “failed to induce either ternary complex”. Moreover, in series [2], the “Ternary complex induction (in words), wild-type FKBP12” value is “failed to induce either ternary complex”.
Regarding `C=CCO/N=C1/C[C@@H]([C@H](C)C[C@@H]2CC[C@@H](O)[C@H](OC)C2)OC(=O)[C@@H]2CCCCN2C(=O)C(=O)[C@]2(O)O[C@@H](CC[C@H]2C)C[C@H](OC)/C(C)=C/C=C/C=C/[C@@H](C)C[C@@H](C)C(=O)[C@H](OC)[C@H](O)/C(C)=C/[C@H]1C` [Rapa*-9Z], the Papp at 5 h, 100 µM in series [3] was determined as 0.014 ×10⁻⁶ cm/s. Further, in series [4], the apparent permeability from apical to basolateral (Papp A→B) at 1 h, 10 µM is below 0.1 ×10⁻⁶ cm/s and the Papp B→A at 1 h, 10 µM was 0.4 ×10⁻⁶ cm/s.
In the case of `CO[C@H]1C[C@@H]2CC[C@@H](C)[C@@](O)(O2)C(=O)C(=O)N2CCCC[C@H]2C(=O)O[C@H]([C@H](C)C[C@@H]2CC[C@@H](O)[C@H](OC)C2)C/C(=N/O)[C@H](C)/C=C(\C)[C@@H](O)[C@@H](OC)C(=O)[C@H](C)C[C@H](C)/C=C/C=C/C=C/1C` [Rapa*-1Z], in series [3], the apparent permeability (Papp) at 5 h, 100 µM is 0.002 ×10⁻⁶ cm/s. Further, in series [4], the apparent permeability from apical to basolateral (Papp A→B) at 1 h, 10 µM is below 0.3 ×10⁻⁶ cm/s and the Papp B→A at 1 h, 10 µM was found to be 1.6 ×10⁻⁶ cm/s.
`CO[C@H]1C[C@@H]2CC[C@@H](C)[C@@](O)(O2)C(=O)C(=O)N2CCCC[C@H]2C(=O)O[C@H]([C@H](C)C[C@@H]2CC[C@@H](O)[C@H](OC)C2)CC(=O)[C@H](C)/C=C(\C)[C@@H](O)[C@@H](OC)C(=O)[C@H](C)C[C@H](C)/C=C/C=C/C=C/1C` [rapamycin, reference compound]: in series [5], the “Growth inhibition of yeast, fpr1-KO with empty vector” value is “conferred resistance to rapamycin”. Moreover, the “Growth inhibition of yeast expressing wild-type human FKBP12” value in series [5] (fpr1-KO + human FKBP12) is recorded as “rescued full sensitivity”. Moreover, the “Growth inhibition of yeast expressing FKBP12 F46/V55 mutants” value in series [5] (mutant strains) is “retained activity, albeit reduced, in the mutant strains”. Besides, the “Selectivity of ternary complex induction, wild-type vs V55G” value in series [1] (FKBP12 vs FKBP12 V55G) is reported as “slightly selective toward the wild-type complex”. In series [3], the apparent permeability (Papp) at 5 h, 100 µM was 0.209 ×10⁻⁶ cm/s. Also, in series [4], the apparent permeability from apical to basolateral (Papp A→B) at 1 h, 10 µM is 0.8 ×10⁻⁶ cm/s and the apparent permeability from basolateral to apical (Papp B→A) at 1 h, 10 µM was 2.3 ×10⁻⁶ cm/s. The “Cell growth inhibition, 293 cells with and without FKBP12 V55G” value in series [6] is “inhibited mutant and wild-type cells equally”. For the same compound, in series [7] (wild-type (w1118) larvae, compound in food), the “Effect on larval development in wild-type animals” value is listed as “profound inhibition of larval development”. Also, the “Dose required for complete inhibition of larval development” value in series [7] (wild-type flies (w1118), in food, 9 d after egg laying) came out at 1 µM.
